Entries after “also recorded” stand apart in the source; their conditions may differ.
Tested on: pigs (fattening animals of the Piétrain×Danbred breed)
Assay: Tail biting (caudophagia) injury scoring in fattening pigs fed guanidinoacetic acid in the feed
Assay type: in vivo, pig (Sus scrofa domesticus)
Details: for Number of animals score 3 or 4: regardless of available space; for Number of animals with score 1 (without abnormalities) / Number of animals with score 2 (dry bite marks, not bleeding) / Number of animals with score 3 (bloody bite marks, moderate inflammation) / Number of animals with score 4 ((partial) loss, high-grade inflammation, large bleeding wounds) / Number of animals, total score 3 + 4: 96 animals
Description: A total of 1440 pigs (fattening animals of the Piétrain×Danbred breed) were used.
From the 91st day of life, the experiment started with different dosage of different amounts of guanidinoacetic acid in the feed.
After 60 days of life, 1152 animals were selected for the continuation of the experiment: Here, conspicuously weak animals and animals with easily recognizable injuries to the tail or other body parts were not used.
In the subsequent fattening period, the pigs were kept in 72 pens of 16 animals each on concrete slats without bedding. A drawing of the experimental setup is shown with FIGS. 1 to 3. The slat width was 18 mm with a tread width of 80 mm. Feed was provided ad libitum by means of type RM 05 mash feeders from IBO Stalltechnik GmbH. The feed was supplied via floury feed.
For each experimental parameter, 6 pens of mixed-sex were housed. For an even distribution, the animals were first divided into 4 main groups 1, 2, 3 and 4 of 288 animals each. Then, from each main group, animals were divided into 3 subgroups A, B and C (SG A, SG B, SG C) of 96 animals each, and from each subgroup, animals were separated into 6 pens. Thus, there were 12 experimental parameters with 6 replications each and 16 animals per replication, corresponding to 1152 animals.
The 72 pens were divided into 6 sections in a stable. All 4 main groups were represented in each section, with a pen size assigned to each main group (see Table 1). The pen sizes of main groups 3 and 4 were realized by removing railings from the standard pen of 12 m^2. To realize the pen size of main group 2, a part of a 24 m^2 pen was reduced by a railing.
Feeding from 91 days of life was performed in 2 phases, which were identical across all 4 main groups.
For subgroups B and C, guanidinoacetic acid was added to the feed in amounts of 0.04 wt. % and 0.12 wt. %, respectively, relative to the solid feed.
A maximum of 2 failures occurred per experimental regime during the fattening phase. Here, the score was evaluated at the time of the failure.
Essential for an evaluation of the stand is the ratio of uninjured or only slightly injured animals to moderately and severely injured animals. Since dry, non-bloody bite marks result from a playful non-aggressive act, animals with score 2 were added to the non-injured animals. Harmful to animal welfare is considered to occur at score 3 and above, i.e., bloody bite marks, resulting from aggressive acts that are no longer playful. Therefore, for an evaluation, the numbers for scores 3 and 4 were added and the percentage of these animals relative to the total number of the respective experimental group was evaluated.

[1] = experiment B1: 0.04 wt. % GAA in feed, 0.75 m^2/animal
[2] = experiment B2: 0.04 wt. % GAA in feed, 0.9 m^2/animal
[3] = experiment B3: 0.04 wt. % GAA in feed, 1.5 m^2/animal
[4] = experiment B4: 0.04 wt. % GAA in feed, 2.25 m^2/animal
[5] = experiment C1: 0.12 wt. % GAA in feed, 0.75 m^2/animal
[6] = experiment C2: 0.12 wt. % GAA in feed, 0.9 m^2/animal
[7] = experiment C3: 0.12 wt. % GAA in feed, 1.5 m^2/animal
[8] = experiment C4: 0.12 wt. % GAA in feed, 2.25 m^2/animal
[9] = guanidinoacetic acid given orally to pigs

N=C(N)NCC(=O)O [guanidinoacetic acid, Guanidinoacetic acid]
Number of animals score 3 or 4 (0.04 wt. % GAA in feed, experiments B1 + B2 + B3 + B4 pooled, 384 animals): 36 | Injured animals (score 3 or 4) (0.04 wt. % GAA in feed, experiments B1 + B2 + B3 + B4 pooled, 384 animals, without supplementation 12.2%): 9.4% | Reduction of injured animals versus no supplementation (0.12 wt. % GAA in feed, 0.9 m^2/animal): almost halved the number of injured animals; also recorded: reduction of injured animals to almost half | Reduction of injured animals versus no supplementation (0.12 wt. % GAA in feed, 1.5 m^2/animal): more than halved; also recorded: reduction of injured animals to more than half | Number of animals score 3 or 4 (0.12 wt. % GAA in feed, experiments C1 + C2 + C3 + C4 pooled, 384 animals): 32 | Injured animals (score 3 or 4) (0.12 wt. % GAA in feed, experiments C1 + C2 + C3 + C4 pooled, 384 animals, without supplementation 12.2%): 8.3% | Number of animals with score 1 (without abnormalities) [1]: 41 | Number of animals with score 2 (dry bite marks, not bleeding) [1]: 41 | Number of animals with score 3 (bloody bite marks, moderate inflammation) [1]: 10 | Number of animals with score 4 ((partial) loss, high-grade inflammation, large bleeding wounds) [1]: 4 | Number of animals, total score 3 + 4 [1]: 14 | Injured animals (score 3 or 4) (experiment B1: 0.04 wt. % GAA in feed, 0.75 m^2/animal, without supplementation 15.6%): 14.6% | Number of animals with score 1 (without abnormalities) [2]: 50 | Number of animals with score 2 (dry bite marks, not bleeding) [2]: 36 | Number of animals with score 3 (bloody bite marks, moderate inflammation) [2]: 8 | Number of animals with score 4 ((partial) loss, high-grade inflammation, large bleeding wounds) [2]: 2 | Number of animals, total score 3 + 4 [2]: 10 | Injured animals (score 3 or 4) (experiment B2: 0.04 wt. % GAA in feed, 0.9 m^2/animal, without supplementation 14.6%): 10.4% | Number of animals with score 1 (without abnormalities) [3]: 54 | Number of animals with score 2 (dry bite marks, not bleeding) [3]: 36 | Number of animals with score 3 (bloody bite marks, moderate inflammation) [3]: 5 | Number of animals with score 4 ((partial) loss, high-grade inflammation, large bleeding wounds) [3]: 1 | Number of animals, total score 3 + 4 [3]: 6 | Injured animals (score 3 or 4) (experiment B3: 0.04 wt. % GAA in feed, 1.5 m^2/animal, without supplementation 11.5%): 6.3% | Number of animals with score 1 (without abnormalities) [4]: 55 | Number of animals with score 2 (dry bite marks, not bleeding) [4]: 35 | Number of animals with score 3 (bloody bite marks, moderate inflammation) [4]: 6 | Number of animals with score 4 ((partial) loss, high-grade inflammation, large bleeding wounds) [4]: 0 | Number of animals, total score 3 + 4 [4]: 6 | Injured animals (score 3 or 4) (experiment B4: 0.04 wt. % GAA in feed, 2.25 m^2/animal, without supplementation 7.3%): 6.3% | Number of animals with score 1 (without abnormalities) [5]: 40 | Number of animals with score 2 (dry bite marks, not bleeding) [5]: 43 | Number of animals with score 3 (bloody bite marks, moderate inflammation) [5]: 10 | Number of animals with score 4 ((partial) loss, high-grade inflammation, large bleeding wounds) [5]: 3 | Number of animals, total score 3 + 4 [5]: 13 | Injured animals (score 3 or 4) (experiment C1: 0.12 wt. % GAA in feed, 0.75 m^2/animal, without supplementation 15.6%): 13.5% | Number of animals with score 1 (without abnormalities) [6]: 52 | Number of animals with score 2 (dry bite marks, not bleeding) [6]: 36 | Number of animals with score 3 (bloody bite marks, moderate inflammation) [6]: 6 | Number of animals with score 4 ((partial) loss, high-grade inflammation, large bleeding wounds) [6]: 2 | Number of animals, total score 3 + 4 [6]: 8 | Injured animals (score 3 or 4) (experiment C2: 0.12 wt. % GAA in feed, 0.9 m^2/animal, without supplementation 14.6%): 8.3% | Number of animals with score 1 (without abnormalities) [7]: 56 | Number of animals with score 2 (dry bite marks, not bleeding) [7]: 35 | Number of animals with score 3 (bloody bite marks, moderate inflammation) [7]: 4 | Number of animals with score 4 ((partial) loss, high-grade inflammation, large bleeding wounds) [7]: 1 | Number of animals, total score 3 + 4 [7]: 5 | Injured animals (score 3 or 4) (experiment C3: 0.12 wt. % GAA in feed, 1.5 m^2/animal, without supplementation 11.5%): 5.2% | Number of animals with score 1 (without abnormalities) [8]: 55 | Number of animals with score 2 (dry bite marks, not bleeding) [8]: 35 | Number of animals with score 3 (bloody bite marks, moderate inflammation) [8]: 5 | Number of animals with score 4 ((partial) loss, high-grade inflammation, large bleeding wounds) [8]: 1 | Number of animals, total score 3 + 4 [8]: 6 | Injured animals (score 3 or 4) (experiment C4: 0.12 wt. % GAA in feed, 2.25 m^2/animal, without supplementation 7.3%): 6.3% | Behavioral abnormalities in the form of tail biting (caudophagia) compared to the untreated control group [9]: less behavioral abnormalities in the form of tail biting | Biting attacks on conspecifics compared to an untreated control group [9]: fewer biting attacks on conspecifics
